Data on 6 molecules can be found in patent US20220402862A1 (Intellia Therapeutics, Inc., priority 2019, published 2022).

Common to all, as to assay type: physicochemical
Series [1] can be described thus: Dynamic light scattering of LNPs: Z-average diameter, number average diameter, PDI. The gist of the method:
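LNP samples were diluted in PBS and measured by DLS to give intensity-based Z-average diameter, number average diameter and polydispersity index. PDI describes size spread around the mean, with zero meaning a uniform population.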

The nature of series [2]: RNA encapsulation efficiency of LNPs (Ribogreen fluorescence assay). As to conditions: for % E (encapsulation efficiency): LNP with G534 sgRNA and Cas9 mRNA, sg:mRNA 1:2, experiment 109; for % E / Encapsulation (%): LNP. In short, it runs like this: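 LNPs were diluted in 1× TE with 0.2% Triton X-100 (total RNA) or without it (free RNA), stained with RiboGreen for ~10 min at room temperature in the dark, and read at Ex 488/Em 525 nm against standard curves of the starting RNA. Encapsulation efficiency = (Total − Free)/Total.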

Series [3] in a line: pKa measurement of unformulated amine lipid (fluorescence, method of Jayaraman et al.). Conditions: 100 μM in 0.1 M phosphate buffer, pH 2.0-12.0. On the procedure:
The pKa of each amine lipid was determined according to the method in Jayaraman, et al. (Angewandte Chemie, 2012) with the following adaptations. […] Lipid was diluted to 100 μM in 0.1 M phosphate buffer (Boston Bioproducts) where the pH ranged from 2.0-12.0. Fluorescence intensity was measured using excitation and emission wavelengths of 321 nm and 448 nm.

Setting [4] is: LNP with G534 sgRNA and Cas9 mRNA, sg:mRNA 1:2, experiment 109.
The mark [5] stands for this setting: LNP, sg:mRNA 1:1, N/P 6.0, 50/9/38/3, Table 4, Experiments 101-104.
[6] abbreviates: LNP, sg:mRNA 1:1.3, N/P about 6, 50/9/38/3, Table 2, Experiment 1.
[7] abbreviates: LNP, sg:mRNA 1:2, N/P 6.0, 50/9/38/3, Table 4, Experiment 105.
Setting [8] is: LNP, sg:mRNA 1:2, N/P about 6, 50/9/38/3, G650, Table 8, Experiment 108.
The mark [9] stands for this setting: LNP, sg:mRNA 1:2, N/P about 6, 50/9/38/3, Table 6, Experiments 106-107.
[10] abbreviates: sg:mRNA 1:1, N/P 6.0, 50/9/38/3, Table 4, Experiments 101-104.
The mark [11] stands for this setting: sg:mRNA 1:1, N/P about 6, amine lipid/DSPC/cholesterol/PEG-2k-DMG 50/9/38/3, Table 2, Experiments 2-20.
Setting [12] is: sg:mRNA 1:2, N/P 6.0, 50/9/38/3, Table 4, Experiment 105.
Where [13] appears, read: sg:mRNA 1:2, N/P about 6, 50/9/38/3, G650 sgRNA, Table 8, Experiment 108.
Where [14] appears, read: LNP, sg:mRNA 1:1, N/P about 6, 50/9/38/3, Table 2, Experiments 2-20.

Several values for one entry are separate records, joined by “and”; a condition that tells them apart may be missing. Equal values may be shown once.

A word on the pKa: it is the negative logarithm of the acid dissociation constant. Read a high pKa as a weaker acid or stronger base. As for `CCCCC/C=C\C/C=C\CCCCCCCC(=O)OCC(COC(=O)CCC(OCCCCCCCC)OCCCCCCCC)COC(=O)OCCCN(CC)CC` (stereo not shown) [Compound 1, 3-((4,4-bis(octyloxy)butanoyl)oxy)-2-((((3-(diethylamino)propoxy)carbonyl)oxy)methyl)propyl (9Z,12Z)-octadeca-9,12-dienoate, reference compound], the “Number mean (nm)” value in series [1] (setting [4]) is 73 nm; in series [1] (setting [5]) it was 69.51 nm and 62.86 nm and 64.97 nm and 63.19 nm; in series [1] (setting [6]), 63.16 nm; in series [1] (setting [7]), 73.15 nm; in series [1] (setting [8]), 70 nm; in series [1] (setting [9]), 76 nm and 71 nm. In addition, the PDI in series [1] (setting [4]) is recorded as 0.01; in series [1] (setting [6]), 0.022; in series [1] (setting [7]), 0.033; in series [1] (setting [8]) it was 0.03. Moreover, the “Z-avg (nm)” value is 88 nm in series [1] (setting [4]); 84.93 nm and 79.83 nm and 82.71 nm and 79.18 nm in series [1] (setting [5]); 77.85 nm in series [1] (setting [6]); 88.60 nm in series [1] (setting [7]); 86 nm in series [1] (setting [8]); 91 nm and 88 nm in series [1] (setting [9]). The “% E (encapsulation efficiency)” value in series [2] amounted to 98%. In addition, the “% E” value in series [2] (setting [10]) was 98% and 99% and 97%; in series [2] (setting [12]), 99%; in series [2] (setting [13]) it was 98%; in series [2] (sg:mRNA 1:2, N/P about 6, 50/9/38/3, TTR sgRNA (SEQ ID NO: 4), Table 6, Experiments 106-107), 99%. The “Encapsulation (%)” value in series [2] (setting [11]) was 96% and 99% and 98% and 97%; in series [2] (sg:mRNA 1:1.3, N/P about 6, amine lipid/DSPC/cholesterol/PEG-2k-DMG 50/9/38/3, Table 2, Experiment 1), 97%. The molecule further had a pKa in series [3] of 6.4.

With `CCCCC/C=C\C/C=C\CCCCCCCC(=O)OCC(COC(=O)CCC(OCCCCCCCC)OCCCCCCCC)COC(=O)NCC1CCCN1CC` (stereo not shown) [Compound 40, 3-((4,4-bis(octyloxy)butanoyl)oxy)-2-(((((1-ethylpyrrolidin-2-yl)methyl)carbamoyl)oxy)methyl)propyl (9Z,12Z)-octadeca-9,12-dienoate], in series [1] (setting [5]), the “Number mean (nm)” value was 66.92 nm, the PDI is given as 0.014 and the “Z-avg (nm)” value is listed as 83.69 nm. For the same molecule, in series [1] (setting [14]), the “Number mean (nm)” value is given as 56.73 nm, the PDI turned out to be 0.056 and the “Z-avg (nm)” value was found to be 74.12 nm. Also, the “% E” value in series [2] (setting [10]) came out at 95%. The “Encapsulation (%)” value in series [2] (setting [11]) is given as 98%. In addition, in series [3], the pKa worked out at 7.33.

Take `CCCCC/C=C\C/C=C\CCCCCCCC(=O)OCC(COC(=O)CCC(OCCCCCCCC)OCCCCCCCC)COC(=O)OCC1CCCN(C)C1` (stereo not shown) [Compound 53, 3-((4,4-bis(octyloxy)butanoyl)oxy)-2-(((((1-methylpiperidin-3-yl)methoxy)carbonyl)oxy)methyl)propyl (9Z,12Z)-octadeca-9,12-dienoate]: in series [1] (setting [5]), the “Number mean (nm)” value was found to be 56.05 nm, the PDI is recorded as 0.019 and the “Z-avg (nm)” value came out at 70.47 nm. In addition, in series [1] (setting [14]), the “Number mean (nm)” value is given as 60.35 nm, the PDI is 0.040 and the “Z-avg (nm)” value was 76.24 nm. Moreover, the “% E” value in series [2] (setting [10]) is 99%. Besides, the “Encapsulation (%)” value in series [2] (setting [11]) came out at 99%. In series [3], the pKa came to 6.85.

Regarding `CCCCCCCCCCOC(=O)CCCCCCCC(=O)OCC(COC(=O)CCC(OCCCCCCCC)OCCCCCCCC)COC(=O)OCCCN(CC)CC` (stereo not shown) [Compound 59, 1-(3-((4,4-bis(octyloxy)butanoyl)oxy)-2-((((3-(diethylamino)propoxy)carbonyl)oxy)methyl)propyl) 9-decyl nonanedioate], the “Number mean (nm)” value in series [1] (setting [4]) was 75 nm; in series [1] (setting [5]), 72.60 nm and 67.12 nm; in series [1] (setting [14]), 84.05 nm and 73.04 nm; in series [1] (setting [7]), 79.11 nm. The PDI is 0.04 in series [1] (setting [4]); 0.012 and 0.024 in series [1] (setting [5]); 0.041 in series [1] (setting [7]). For the same molecule, the “Z-avg (nm)” value in series [1] (setting [4]) was 91 nm; in series [1] (setting [5]) it was 87.31 nm and 83.42 nm; in series [1] (setting [14]) it was 100.4 nm and 87.86 nm; in series [1] (setting [7]) it was 96.76 nm. In addition, the “% E (encapsulation efficiency)” value in series [2] came to 98%. Besides, the “% E” value in series [2] (setting [10]) is 98% and 96%; in series [2] (setting [12]), 99%. Besides, in series [2] (setting [11]), the “Encapsulation (%)” value was 99% and 97%. This molecule had a pKa in series [3] of 6.4.

On to `CCCCCCCCCC(C)OC(=O)CCCCCCCC(=O)OCC(COC(=O)CCC(OCCCCCCCC)OCCCCCCCC)COC(=O)OCCCN(CC)CC` (stereo not shown) [Compound 94, 1-(344,4-bis(octyloxy)butanoyl)oxy)-2-((((3-(diethylamino)propoxy)carbonyl)oxy)methyl)propyl) 9-(undecan-2-yl) nonanedioate], for which, in series [1] (setting [4]), the “Number mean (nm)” value is listed as 77 nm, the PDI was 0.02 and the “Z-avg (nm)” value is 95 nm. For the same molecule, in series [1] (setting [14]), the “Number mean (nm)” value is given as 78.22 nm, the PDI was determined as 0.018 and the “Z-avg (nm)” value was 96.35 nm. Also, in series [1] (setting [7]), the “Number mean (nm)” value is 80.04 nm, the PDI is given as 0.032 and the “Z-avg (nm)” value amounted to 98.90 nm. Further, the “% E (encapsulation efficiency)” value in series [2] was found to be 97%. The “Encapsulation (%)” value in series [2] (setting [11]) came out at 99%. Further, the “% E” value in series [2] (setting [12]) is listed as 99%. The same molecule showed a pKa in series [3] of 6.14.

In the case of `CCCCC/C=C\C/C=C\CCCCCCCC(=O)OCC(COC(=O)CC12CC3CC(CC(C3)C1)C2)COC(=O)OCCCN(CC)CC` (stereo not shown) [Compound 107, 3-(2-((3 r,5 r, 7r)-adamantan-1-yl)acetoxy)-2-((((3-(diethylamino)propoxy)carbonyl)oxy)methyl)propyl (9Z,12Z)-octadeca-9,12-dienoate], in series [1] (setting [8]), the “Number mean (nm)” value came out at 65 nm, the PDI was determined as 0.07 and the “Z-avg (nm)” value is 84 nm. In series [2] (setting [13]), the “% E” value is 94%. In series [3], this molecule showed a pKa of 6.43.
